4 molecules from publication PMC11350587, “Screening Privileged Alkyl Guanidinium Motifs under Host-Mimicking Conditions Reveals a Novel Antibiotic with an Unconventional Mode of Action” (JACS Au, 2024) can be followed below.

Structures are written as SMILES.

What all share (format): cell-based
Assay [1] deals with T1, signal peptidase IB (SpsB) (Staphylococcus aureus, UniProt P0A070).
T1 sequence (P0A070 1-191): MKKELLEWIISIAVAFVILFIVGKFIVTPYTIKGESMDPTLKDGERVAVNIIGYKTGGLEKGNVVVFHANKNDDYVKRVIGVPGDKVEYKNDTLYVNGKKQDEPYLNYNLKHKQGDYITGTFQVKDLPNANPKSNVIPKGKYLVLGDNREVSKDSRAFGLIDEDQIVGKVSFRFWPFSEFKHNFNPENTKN
Put plainly: FRET substrate cleavage assay with SpsB (activation).

In assay [2] the target is signal peptidase IB (SpsB) (Staphylococcus aureus, UniProt P0A070, Q165A). Put plainly: enzyme turnover assay with SpsB mutant (activation retained).
In assay [3] the target is signal peptidase IB (SpsB) (Staphylococcus aureus, UniProt P0A070). Put plainly: FRET substrate cleavage assay with membrane-bound SpsB (activation); supported by competition of photoprobe labelling in cells and loss of activation in pocket mutants.

As to `N=C(N)NCc1ccc(-c2ccc(Br)cc2)s1` [D10], the “FRET substrate cleavage assay with SpsB (activation)” value (“FRET substrate cleavage assay” for short) in assay [1] is “Further structural derivatives (D10, D14, and D16) also showed SpsB activation in the FRET assay”.

As to `NCc1ccc(-c2ccc(Br)cc2)o1` [D14], the “FRET substrate cleavage assay” value in assay [1] was “Further structural derivatives (D10, D14, and D16) also showed SpsB activation in the FRET assay”.

Turning to `Nc1nccn1Cc1ccc(-c2ccc(Br)cc2)o1` [D16], the “FRET substrate cleavage assay” value in assay [1] is “Further structural derivatives (D10, D14, and D16) also showed SpsB activation in the FRET assay”.

For `N=C(N)NCc1ccc(-c2ccc(Br)cc2)o1` [L15], in assay [2], the “enzyme turnover assay with SpsB mutant (activation retained)” value is “while Q165A, a control mutation that does not affect binding, still showed activation”. Moreover, in assay [3], the “%” value is listed as ~ 150%.
